Reference: ChEMBL document CHEMBL5104183, “Discovery of Highly Potent and Selective Matrix Metalloproteinase-7 Inhibitors by Hybridizing the S1' Subsite Binder with Short Peptides” (J Med Chem, 2022)
pIC50: −log10 of the molar value. *1 amine or outer side, *2 acyl side, *3 side chain or, on linkers, in order; H or OH if unused. Where a SMILES comes first, the peptide text is derived from it. [ ]: non-standard residue; d: D form. The star is where a group is joined. Benzenesulfonyl(4-Cl,3-CF3) = O=S(=O)(c1ccc(Cl)c(C(F)(F)F)c1)*; γGlu = O=C(O)[C@H](CCC(=O)[*:2])N[*:1]; β3hP = O=C(O)C[C@@H]1CCCN1

How the values were obtained:
Stromelysin-1 = Stromelysin-1 (Homo sapiens, UniProt P08254); experiment: Inhibition of human recombinant MMP-3 (Tyr18 to Cys477 residues ) using MOCAc-Arg-Pro-Lys-Pro-Val-Glu-Nva-Trp-Arg-Lys(Dnp)-NH2 as fluorogenic substrate preincubated for 15 mins followed by substrate addition by fluorescence based analysis
Collagenase 3 = Collagenase 3 (Homo sapiens, UniProt P45452); experiment: Inhibition of human recombinant MMP-13 (Leu20 to Cys471 residues) using MOCAc-Pro-Leu-Gly-Leu-A2pr(Dnp)-Ala-Arg-NH2 as fluorogenic substrate preincubated for 15 mins followed by substrate addition by fluorescence based analysis
[1] = molecular target: Matrix metalloproteinase-9 (Homo sapiens, UniProt P14780); experiment: Inhibition of human recombinant MMP-9 (Ala20 to Asp707 residues) using MOCAc-Pro-Leu-Gly-Leu-A2pr(Dnp)-Ala-Arg-NH2 as fluorogenic substrate preincubated for 15 mins followed by substrate addition by fluorescence based analysis
Matrilysin = molecular target: T1, Matrilysin (Homo sapiens, UniProt P09237); experiment: Inhibition of human recombinant MMP-7 (Leu18 to Lys267 residues) using MOCAc-Pro-Leu-Gly-Leu-A2pr(Dnp)-Ala-Arg-NH2 as fluorogenic substrate preincubated for 15 mins followed by substrate addition by fluorescence based analysis
T1 sequence (P09237 whole entry): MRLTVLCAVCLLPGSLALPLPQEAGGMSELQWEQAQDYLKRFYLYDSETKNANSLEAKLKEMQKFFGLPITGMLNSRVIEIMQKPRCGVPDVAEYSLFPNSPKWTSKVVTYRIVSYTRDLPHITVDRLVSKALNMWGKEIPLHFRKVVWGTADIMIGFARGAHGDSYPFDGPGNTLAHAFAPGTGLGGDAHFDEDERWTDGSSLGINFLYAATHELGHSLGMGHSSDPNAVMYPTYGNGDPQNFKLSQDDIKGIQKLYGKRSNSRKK

[2] = molecular target: Macrophage metalloelastase (Homo sapiens, UniProt P39900); experiment: Inhibition of human recombinant MMP-12 (Leu17 to Cys470 residues) using MOCAc-Pro-Leu-Gly-Leu-A2pr(Dnp)-Ala-Arg-NH2 as fluorogenic substrate preincubated for 15 mins followed by substrate addition by fluorescence based analysis
[3] = molecular target: 72 kDa type IV collagenase (Homo sapiens, UniProt P08253); experiment: Inhibition of human recombinant MMP-2 ( Ile34 to Cys660 residues) using MOCAc-Pro-Leu-Gly-Leu-A2pr(Dnp)-Ala-Arg-NH2 as fluorogenic substrate preincubated for 15 mins followed by substrate addition by fluorescence based analysis
[4] = molecular target: Matrix metalloproteinase-14 (Homo sapiens, UniProt P50281); experiment: Inhibition of human recombinant C-terminal 10-His tagged MMP-14 ( Ala21 to Gly284 residues) using MOCAc-Lys-Pro-Leu-Gly-Leu-A2pr(Dnp)-Ala-Arg-NH2 as fluorogenic substrate preincubated for 15 mins followed by substrate addition by fluorescence based analysis
Neutrophil collagenase = Neutrophil collagenase (Homo sapiens, UniProt P22894); experiment: Inhibition of human recombinant MMP-8 (Phe21 to Gly467 residues) using MOCAc-Pro-Leu-Gly-Leu-A2pr(Dnp)-Ala-Arg-NH2 as fluorogenic substrate preincubated for 15 mins followed by substrate addition by fluorescence based analysis
[5] = Stability in human serum incubated for 4 hrs by liquid chromatography-tandem mass spectrometry; format: ADME, cell-free
[6] = Stability in human liver microsomes at 1 uM incubated for 15 mins by liquid chromatography-mass spectrometry; format: ADME, Microsome; conditions: 0.25 h
Interstitial collagenase = molecular target: T2, Interstitial collagenase (Homo sapiens, UniProt P03956); experiment: Inhibition of human recombinant MMP-1 (Phe20 to Asn469 residue) using MOCAc-Lys-Pro-Leu-Gly-Leu-A2pr(Dnp)-Ala-Arg-NH2 as fluorogenic substrate preincubated for 15 mins followed by substrate addition by fluorescence based analysis
T2 sequence (P03956 whole entry): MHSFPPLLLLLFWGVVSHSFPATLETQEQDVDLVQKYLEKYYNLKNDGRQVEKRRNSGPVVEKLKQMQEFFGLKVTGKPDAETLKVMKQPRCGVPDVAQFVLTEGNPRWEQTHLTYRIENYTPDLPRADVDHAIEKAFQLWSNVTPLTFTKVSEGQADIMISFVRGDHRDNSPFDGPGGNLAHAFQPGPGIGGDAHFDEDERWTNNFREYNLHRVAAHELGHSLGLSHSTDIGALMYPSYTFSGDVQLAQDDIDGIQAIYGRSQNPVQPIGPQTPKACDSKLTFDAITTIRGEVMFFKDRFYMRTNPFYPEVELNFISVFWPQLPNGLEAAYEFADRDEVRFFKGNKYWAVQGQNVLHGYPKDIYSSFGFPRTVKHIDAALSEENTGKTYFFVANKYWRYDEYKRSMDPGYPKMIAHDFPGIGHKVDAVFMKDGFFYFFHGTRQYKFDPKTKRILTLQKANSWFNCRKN

Homo sapiens [7] = species on record: Homo sapiens; experiment: Selectivity index, ratio of IC50 for human recombinant MMP-14 to IC50 for human recombinant MMP-7
Homo sapiens [8] = species on record: Homo sapiens; experiment: Selectivity index, ratio of IC50 for human recombinant MMP-12 to IC50 for human recombinant MMP-7

Chain of Neutrophil collagenase (P22894 whole entry): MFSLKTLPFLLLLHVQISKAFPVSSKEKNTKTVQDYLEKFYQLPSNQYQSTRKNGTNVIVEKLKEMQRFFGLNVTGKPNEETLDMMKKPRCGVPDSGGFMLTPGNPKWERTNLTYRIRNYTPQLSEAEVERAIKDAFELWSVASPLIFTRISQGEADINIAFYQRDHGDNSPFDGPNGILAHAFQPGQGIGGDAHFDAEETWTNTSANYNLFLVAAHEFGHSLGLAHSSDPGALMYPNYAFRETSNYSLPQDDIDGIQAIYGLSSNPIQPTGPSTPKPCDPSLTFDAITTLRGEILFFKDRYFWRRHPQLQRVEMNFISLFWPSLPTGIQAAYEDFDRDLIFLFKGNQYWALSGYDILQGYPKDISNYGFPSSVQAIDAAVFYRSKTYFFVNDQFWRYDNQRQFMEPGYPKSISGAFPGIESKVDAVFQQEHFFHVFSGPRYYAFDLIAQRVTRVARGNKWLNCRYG
Chain of Macrophage metalloelastase (P39900 whole entry): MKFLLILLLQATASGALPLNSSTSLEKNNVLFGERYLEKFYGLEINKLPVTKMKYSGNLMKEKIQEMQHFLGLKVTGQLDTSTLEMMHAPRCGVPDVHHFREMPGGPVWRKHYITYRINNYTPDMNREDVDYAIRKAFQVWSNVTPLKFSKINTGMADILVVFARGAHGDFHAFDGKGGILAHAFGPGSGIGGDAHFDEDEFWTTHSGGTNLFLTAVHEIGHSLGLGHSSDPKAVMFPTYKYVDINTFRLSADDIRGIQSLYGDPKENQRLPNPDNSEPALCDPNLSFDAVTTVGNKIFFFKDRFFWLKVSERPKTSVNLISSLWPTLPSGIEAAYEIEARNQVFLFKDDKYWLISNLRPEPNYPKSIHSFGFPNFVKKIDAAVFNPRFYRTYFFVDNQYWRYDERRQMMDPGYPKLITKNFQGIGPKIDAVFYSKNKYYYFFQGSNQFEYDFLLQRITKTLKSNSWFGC
Chain of 72 kDa type IV collagenase (P08253 whole entry): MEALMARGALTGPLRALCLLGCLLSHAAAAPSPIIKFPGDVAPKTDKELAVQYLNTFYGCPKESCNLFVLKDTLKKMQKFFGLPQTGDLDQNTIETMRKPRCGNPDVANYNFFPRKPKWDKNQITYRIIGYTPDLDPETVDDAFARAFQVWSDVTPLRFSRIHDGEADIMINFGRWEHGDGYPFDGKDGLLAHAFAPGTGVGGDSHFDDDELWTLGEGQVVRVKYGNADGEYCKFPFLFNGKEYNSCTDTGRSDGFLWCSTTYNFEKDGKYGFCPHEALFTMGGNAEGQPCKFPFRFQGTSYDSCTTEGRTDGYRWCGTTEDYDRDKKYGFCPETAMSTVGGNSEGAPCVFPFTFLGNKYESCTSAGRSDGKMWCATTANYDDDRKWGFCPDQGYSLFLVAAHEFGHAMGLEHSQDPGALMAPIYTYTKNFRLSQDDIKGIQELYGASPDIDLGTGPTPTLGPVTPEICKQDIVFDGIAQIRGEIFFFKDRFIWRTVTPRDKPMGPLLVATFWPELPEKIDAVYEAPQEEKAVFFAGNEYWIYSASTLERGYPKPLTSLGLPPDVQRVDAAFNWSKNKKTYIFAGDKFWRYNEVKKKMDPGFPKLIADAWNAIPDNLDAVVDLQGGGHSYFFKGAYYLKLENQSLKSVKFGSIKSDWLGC
Chain of Stromelysin-1 (P08254 whole entry): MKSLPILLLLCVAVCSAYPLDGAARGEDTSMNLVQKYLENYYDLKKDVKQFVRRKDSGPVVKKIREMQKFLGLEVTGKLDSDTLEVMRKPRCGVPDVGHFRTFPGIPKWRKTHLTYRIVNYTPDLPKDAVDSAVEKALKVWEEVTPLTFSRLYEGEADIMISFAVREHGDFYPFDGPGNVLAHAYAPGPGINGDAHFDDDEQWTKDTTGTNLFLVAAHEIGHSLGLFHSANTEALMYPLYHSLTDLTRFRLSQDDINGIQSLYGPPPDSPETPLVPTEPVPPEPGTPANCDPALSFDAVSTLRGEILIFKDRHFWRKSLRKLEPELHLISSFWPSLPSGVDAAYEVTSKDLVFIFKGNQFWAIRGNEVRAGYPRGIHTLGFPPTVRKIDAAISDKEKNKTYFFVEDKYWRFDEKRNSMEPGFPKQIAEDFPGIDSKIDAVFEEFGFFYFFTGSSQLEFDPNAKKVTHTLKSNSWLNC
Chain of Matrix metalloproteinase-9 (P14780 whole entry): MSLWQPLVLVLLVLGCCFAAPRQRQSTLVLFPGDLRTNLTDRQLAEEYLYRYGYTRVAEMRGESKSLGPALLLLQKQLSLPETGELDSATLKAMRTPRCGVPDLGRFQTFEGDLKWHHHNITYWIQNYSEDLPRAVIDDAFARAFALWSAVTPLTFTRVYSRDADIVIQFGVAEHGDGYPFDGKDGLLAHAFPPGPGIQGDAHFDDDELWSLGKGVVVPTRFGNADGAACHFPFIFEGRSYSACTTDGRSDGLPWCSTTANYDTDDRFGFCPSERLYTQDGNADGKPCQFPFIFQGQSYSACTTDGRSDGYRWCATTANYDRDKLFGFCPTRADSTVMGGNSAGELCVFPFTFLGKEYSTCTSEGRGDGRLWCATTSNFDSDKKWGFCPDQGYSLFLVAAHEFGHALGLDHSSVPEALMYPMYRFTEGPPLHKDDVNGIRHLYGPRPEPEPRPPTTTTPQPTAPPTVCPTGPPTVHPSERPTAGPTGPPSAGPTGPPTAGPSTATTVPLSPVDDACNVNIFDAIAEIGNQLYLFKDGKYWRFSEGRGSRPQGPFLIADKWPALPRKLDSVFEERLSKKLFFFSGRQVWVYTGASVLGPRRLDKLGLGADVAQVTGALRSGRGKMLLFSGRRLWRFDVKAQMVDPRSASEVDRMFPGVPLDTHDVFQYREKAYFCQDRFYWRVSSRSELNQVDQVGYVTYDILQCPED

Row | SMILES | pIC50 (Stromelysin-1) | pIC50 (Collagenase 3) | pIC50 [1] | pIC50 (Matrilysin) | pIC50 [2] | pIC50 [3] | pIC50 [4] | pIC50 (Neutrophil collagenase) | further results
1 | CSCC[C@H](NC(=O)[C@H](CC(C)C)NC(=O)CNC(=O)CC[C@H](NS(=O)(=O)c1ccc(Cl)c(C(F)(F)F)c1)C(=O)O)C(N)=O | < 4.00 | < 4.00 | < 4.00 | 6.92 | 4.70 | 4.14 | 4.60 | < 4.00 | –
2 | CC(C)C[C@H](NC(=O)CNC(=O)CC[C@H](NS(=O)(=O)c1ccc(Cl)c(C(F)(F)F)c1)C(=O)O)C(=O)N[C@H](C(=O)N[C@@H](C)C(N)=O)C(C)C ({Benzenesulfonyl(4-Cl,3-CF3)-γGlu}-GLVA-NH2) | < 4.00 | < 4.00 | < 4.00 | 7.80 | 4.92 | 4.48 | 4.96 | < 4.00 | Stability [5]: Stable; Stability [6]: Stable; pIC50 (Interstitial collagenase): < 4.00
3 | CC(C)C[C@H](NC(=O)[C@H](C)NC(=O)CC[C@H](NS(=O)(=O)c1ccc(Cl)c(C(F)(F)F)c1)C(=O)O)C(=O)N[C@@H](C)C(N)=O | – | – | – | 5.77 | – | – | – | – | –
4 | CC(C)C[C@H](NC(=O)CNC(=O)CC[C@H](NS(=O)(=O)c1ccc(Cl)c(C(F)(F)F)c1)C(=O)O)C(=O)N[C@H](C(=O)N1CCC[C@H]1C(N)=O)C(C)C ({Benzenesulfonyl(4-Cl,3-CF3)-γGlu}-GLVP-NH2) | – | – | – | 7.72 | – | – | – | – | –
5 | CSCC[C@H](NC(=O)[C@H](CC(C)C)NC(=O)[C@H](CC(C)C)NC(=O)CC[C@H](NS(=O)(=O)c1ccc(Cl)c(C(F)(F)F)c1)C(=O)O)C(N)=O | – | – | – | 6.11 | – | – | – | – | –
6 | CC(C)C[C@H](NC(=O)CNC(=O)CC[C@H](NS(=O)(=O)c1ccc(Cl)c(C(F)(F)F)c1)C(=O)O)C(=O)N[C@H](C(=O)N1CCC[C@H]1CC(N)=O)C(C)C ({Benzenesulfonyl(4-Cl,3-CF3)-γGlu}-GLV[β3hP]-NH2) | < 4.00 | < 4.00 | < 4.00 | 8.00 | 5.54 | 4.96 | 6.35 | 4.23 | Stability [5]: Stable; Stability [6]: Stable; Ratio IC50 (Homo sapiens [7]): 45; Ratio IC50 (Homo sapiens [8]): 290
7 | CSCC[C@H](NC(=O)[C@H](CC(C)C)NC(=O)[C@H](CC(N)=O)NC(=O)CC[C@H](NS(=O)(=O)c1ccc(Cl)c(C(F)(F)F)c1)C(=O)O)C(N)=O | – | – | – | 5.12 | – | – | – | – | –
8 | CC(C)C[C@H](NC(=O)CNC(=O)CC[C@H](NS(=O)(=O)c1ccc(Cl)c(C(F)(F)F)c1)C(=O)O)C(=O)N[C@H](C(N)=O)C(C)C | < 4.00 | < 4.00 | < 4.00 | 7.25 | 4.55 | 4.35 | 4.77 | < 4.00 | pIC50 (Interstitial collagenase): < 4.00
9 | CSCC[C@H](NC(=O)[C@H](CC(C)C)NC(=O)[C@H](C)NC(=O)C[C@H](NS(=O)(=O)c1ccc(Cl)c(C(F)(F)F)c1)C(=O)O)C(N)=O | – | – | – | 5.33 | – | – | – | – | –
10 | CSCC[C@H](NC(=O)[C@H](CC(C)C)NC(=O)[C@H](CO)NC(=O)CC[C@H](NS(=O)(=O)c1ccc(Cl)c(C(F)(F)F)c1)C(=O)O)C(N)=O | – | – | – | 5.24 | – | – | – | – | –
11 | CSCC[C@H](NC(=O)[C@H](C)NC(=O)[C@H](C)NC(=O)CC[C@H](NS(=O)(=O)c1ccc(Cl)c(C(F)(F)F)c1)C(=O)O)C(N)=O | – | – | – | 5.17 | – | – | – | – | –
12 | CSCC[C@H](NC(=O)[C@H](CC(C)C)NC(=O)[C@H](C)NC(=O)CC[C@H](NS(=O)(=O)c1ccc(Cl)c(C(F)(F)F)c1)C(=O)O)C(N)=O | < 4.00 | < 4.00 | < 4.00 | 6.36 | 4.40 | < 4.00 | < 4.00 | < 4.00 | –
13 | CSCC[C@H](NC(=O)[C@H](Cc1ccccc1)NC(=O)CNC(=O)CC[C@H](NS(=O)(=O)c1ccc(Cl)c(C(F)(F)F)c1)C(=O)O)C(N)=O | – | – | – | 6.96 | – | – | – | – | –
14 | O=C(O)[C@H](CCc1ccccc1)NS(=O)(=O)c1ccc(Cl)c(C(F)(F)F)c1 | < 4.00 | < 4.00 | < 4.00 | 5.21 | < 4.00 | < 4.00 | < 4.00 | < 4.00 | pIC50 (Interstitial collagenase): < 4.00
15 | CSCC[C@H](NC(=O)[C@H](CC(C)C)NC(=O)[C@H](CCC(N)=O)NC(=O)CC[C@H](NS(=O)(=O)c1ccc(Cl)c(C(F)(F)F)c1)C(=O)O)C(N)=O | – | – | – | 5.89 | – | – | – | – | –
